The source of these data is US7067518B2, “Pyridinyl-methyl-ethyl cyclohexanecarboxamides as serotonergic agents” (Wyeth, priority 2002, dated 2006).

In test [1] the target is T1, human 5-HT1A receptor (Homo sapiens, UniProt P08908).
T1 construct: expressed in transfected cells; host or cells: CHO cells (stably transfected)
T1 sequence (P08908 1-422): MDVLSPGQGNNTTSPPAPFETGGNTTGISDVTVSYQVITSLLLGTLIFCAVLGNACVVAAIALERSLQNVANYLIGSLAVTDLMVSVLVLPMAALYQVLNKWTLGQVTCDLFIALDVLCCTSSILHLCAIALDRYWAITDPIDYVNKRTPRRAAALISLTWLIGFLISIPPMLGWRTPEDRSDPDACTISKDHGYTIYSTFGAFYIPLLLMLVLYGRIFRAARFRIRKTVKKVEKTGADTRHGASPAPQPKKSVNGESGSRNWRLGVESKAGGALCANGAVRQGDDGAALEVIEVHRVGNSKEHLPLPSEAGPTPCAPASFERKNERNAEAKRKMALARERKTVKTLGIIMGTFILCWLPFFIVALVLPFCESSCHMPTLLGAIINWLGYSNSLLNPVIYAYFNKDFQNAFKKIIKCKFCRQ
As to the kind of experiment: 5-HT1A affinity: displacement of [3H] 8-OHDPAT. The class given is binding. The settings on record: CHO cells stably transfected with the human 5-HT1A receptor. The text has this:
Affinity for the serotonin 5-HT1A receptor was established by assaying the test compound's ability to displace [^3H] 8-OHDPAT from its binding site on the receptor complex in CHO cells stably transfected with the human 5-HT1A receptor following the procedure described by J. Dunlop, Y. Zhang, D. Smith and L. Schechter (Eur. J. Pharmacol., submitted; variation of a procedure described by J. Zgombick et al., Naunyn-Schmiedeberg's Arch. Pharmacol., 354, 226–236 (1996)).
For orientation: In a radioligand displacement assay an active substance lowers the binding of a labelled ligand.

The target of test [2] is T1, human 5-HT1A receptor. As to the kind of experiment: Agonist activity: reversal of forskolin stimulation of cAMP. In kind it is cell-based. The settings on record: reversal of forskolin-stimulated cAMP; CHO cells stably transfected with the human 5-HT1A receptor; RIA. The method, then:
EC50 values are determined for the active test compounds. Stably transfected CHO cells were grown in DMEM containing 10% heat inactivated FBS and non-essential amino acids. The cells are plated at a density of […] per well in a 24 well plate and incubated for 2 days in a CO2 incubator. On the second day, the media is replaced with 0.5 mL treatment buffer (DMEM+25 mM HEPES, 5 mM theophylline, 10 mM pargyline) and incubated for 10 minutes at 37° C. Wells are treated with forskolin ([…]) followed immediately by the test compound ([…] for initial screen) and incubated for an additional 10 minutes at 37° C. The reaction is terminated by removal of the media and addition of 0.5 mL ice cold assay buffer (supplied in the RIA kit). Plates are stored at −20° C. prior to assessment of cAMP formation by RIA.

As for `CC1(C(=O)N[C@H](Cc2ccncc2)CN2CCN(c3cccc4c3OCCO4)CC2)CCCCC1` [Example 23, 1-Methyl-cyclohexanecarboxylic acid {(1R)-2-[4-(2,3-dihydro-benzo[1,4]dioxin-5-yl)-piperazin-1-yl]-1-pyridin-4-ylmethyl-ethyl}-amide], the IC50 (usually the concentration at which inhibition is half-maximal) on human 5-HT1A receptor [1] turned out to be 1.13 nM. Moreover, the EC50 – broadly, the concentration giving half of the maximal effect – on human 5-HT1A receptor [2] amounted to 108 nM.
